Data from patent US8518958B2, “Pyrido [2,3-D] pyrimidines and their use as kinase inhibitors” (Forma Therapeutics, Inc., priority 2006, dated 2013).

Tests used:
B-Raf delta1-415 = B-Raf delta1-415 (Homo sapiens, UniProt P15056); experiment: B-Raf kinase inhibition (MAPH filter plate, 33P-ATP, MEK1 substrate); settings: read-out: Biochemical IC50 B-Raf
How it was run: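 Radiometric filter-binding assay with B-Raf delta1-415 at a level giving 50% turnover, MEK1 substrate and 33P-ATP (12.5 μCi/ml) in 20 mM Mops pH 7.0 with Mg/Mn, 1 h at room temperature. Inhibitor dilution series from 10 μM; EDTA-stopped reactions captured on phosphocellulose filters, counted by scintillation for IC50.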

HT-29 tumor cells = experiment: Anti-proliferative activity, SRB assay; format: cell-based, human; settings: Homo sapiens, HT-29, 72 h, 72 hours exposure, read-out: CELLULAR IC50 HT-29
How it was run: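 Cells at 3,000-15,000/well, plated 24 h before compound, exposed to a concentration range for 72 hours. Proliferation measured by SRB staining after cold TCA fixation, absorbance at OD570; IC50 estimated from % inhibition versus DMSO-treated cells.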

B-Raf delta1-415, sequence (P15056 416-766): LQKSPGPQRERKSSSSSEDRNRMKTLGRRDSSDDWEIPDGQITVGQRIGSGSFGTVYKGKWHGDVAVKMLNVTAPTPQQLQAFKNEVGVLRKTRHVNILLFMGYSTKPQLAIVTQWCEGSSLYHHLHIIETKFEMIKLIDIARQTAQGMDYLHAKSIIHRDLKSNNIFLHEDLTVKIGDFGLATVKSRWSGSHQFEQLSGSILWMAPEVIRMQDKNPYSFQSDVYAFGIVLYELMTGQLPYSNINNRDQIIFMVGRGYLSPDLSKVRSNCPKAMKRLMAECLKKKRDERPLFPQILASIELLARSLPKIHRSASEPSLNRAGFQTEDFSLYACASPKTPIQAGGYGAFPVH

With COn1c(=O)c(-c2c(Cl)cccc2Cl)cc2cnc(Nc3cc[nH]n3)nc21 [Compound 88, 6-(2,6-Dichlorophenyl)-8-methoxy-2-(pyrazol-3-yl)-amino-pyrido[2,3-d]pyrimidin-7-one] as the compound, how does the IC50 (B-Raf delta1-415) read?
Its IC50 is less than 0.5 µM.

And the IC50 (HT-29 tumor cells)?
Its IC50 is less than 10 µM.

With COn1c(=O)c(-c2c(Cl)cccc2Cl)cc2cnc(Nc3ccc(CN4CC(O)C4)cc3)nc21 [Compound 168] as the compound, how does the IC50 (B-Raf delta1-415) read?
Its IC50 is less than 0.5 µM.

And the IC50 (HT-29 tumor cells)?
Its IC50 is less than 1 µM.

How did the IC50 (B-Raf delta1-415) turn out when COCCOn1c(=O)c(-c2c(Cl)cccc2Cl)cc2cnc(Nc3cc(C(=O)NCCN4CCCC4)n(C)c3)nc21 [Compound 99, 6-(2,6-Dichlorophenyl)-8-(2-methoxyethyl)oxy-2-(5-(2-pyrrolidinoethyl)aminocarbonyl-1-methyl-pyrrol-3-yl)-amino-pyrido[2,3-d]pyrimidin-7-one] was run?
Its IC50 is less than 0.5 µM.

What about the IC50 (HT-29 tumor cells) of the same compound?
The IC50 was less than 1 µM.

Which IC50 (B-Raf delta1-415) does the source give for COn1c(=O)c(-c2c(Cl)cccc2Cl)cc2cnc(Nc3cc(C(=O)N4CCOCC4)n(C)c3)nc21 [Compound 137, 6-(2,6-Dichlorophenyl)-8-methoxy-2-(5-morpholinocarbonyl-1-methyl-pyrrol-3-yl)-amino-pyrido[2,3-d]pyrimidin-7-one] here?
The IC50 was less than 0.1 µM.

And the IC50 (HT-29 tumor cells)?
The IC50 was less than 1 µM.

How did the IC50 (B-Raf delta1-415) turn out when COn1c(=O)c(-c2c(C)cccc2C)cc2cnc(Nc3cc(C(=O)NCCO)n(C)c3)nc21 [Compound 83, 6-(2,6-Dimethylphenyl)-2-(5-(2-hydroxyethyl)aminocarbonyl-1-methyl-pyrrol-3-yl)-amino-8-methoxy-pyrido[2,3-d]pyrimidin-7-one] was run?
Its IC50 is less than 0.5 µM.

And the IC50 (HT-29 tumor cells)?
The IC50 was less than 1 µM.

What does the source list for CO/N=C/c1ccc(Nc2ncc3cc(-c4c(Cl)cccc4Cl)c(=O)n(OC)c3n2)cc1 [Compound 209, 2-(4-(methoximino)methylphenyl)-amino-6-(2,6-dichlorophenyl)-8-methoxy-pyrido[2,3-d]pyrimidin-7-one]?
IC50 (B-Raf delta1-415): < 1 µM; IC50 (HT-29 tumor cells): < 1 µM

Which results are given for COn1c(=O)c(-c2c(C)cccc2C)cc2cnc(Nc3cccnc3)nc21 [Compound 114, 6-(2,6-Dimethylphenyl)-8-methoxy-2-pyrid-3-ylamino-pyrido[2,3-d]pyrimidin-7-one]?
IC50 (B-Raf delta1-415): < 0.1 µM; IC50 (HT-29 tumor cells): < 10 µM

How did the IC50 (B-Raf delta1-415) turn out when COn1c(=O)c(-c2c(Cl)cccc2Cl)cc2cnc(NCc3cccnc3)nc21 [Compound 146, 6-(2,6-Dichlorophenyl)-8-methoxy-2-pyrid-3-ylmethylamino-pyrido[2,3-d]pyrimidin-7-one] was run?
Its IC50 is less than 0.5 µM.

What about the IC50 (HT-29 tumor cells) of the same compound?
The IC50 was less than 10 µM.

COn1c(=O)c(-c2c(Cl)cccc2Cl)cc2cnc(Nc3ccc(CNCCO)cc3)nc21 [Compound 178, 2-(4-(2-hydroxyethylamino)methyl-phenyl)-amino-6-(2,6-dichlorophenyl)-8-methoxy-pyrido[2,3-d]pyrimidin-7-one] was tested. Which IC50 (B-Raf delta1-415) did it give?
The IC50 was less than 0.5 µM.

What about the IC50 (HT-29 tumor cells) of the same compound?
The IC50 was less than 1 µM.

With COCCN(C)C(=O)c1cc(Nc2ncc3cc(-c4c(Cl)cccc4Cl)c(=O)n(OCC4CCOCC4)c3n2)cn1C [Compound 177, 6-(2,6-dichlorophenyl)-2-(5-N-(2-methoxyethyl)-N-methyl-aminocarbonyl-1-methyl-pyrrol-3-yl)-amino-8-(tetrahydropyran-4-ylmethyl)oxy-pyrido[2,3-d]pyrimidin-7-one] as the compound, how does the IC50 (B-Raf delta1-415) read?
Its IC50 is less than 0.5 µM.

And the IC50 (HT-29 tumor cells)?
Its IC50 is less than 1 µM.

For COn1c(=O)c(-c2c(Cl)cccc2Cl)cc2cnc(Nc3ccc(N4CCOCC4)cc3)nc21 [Compound 98, 6-(2,6-Dichlorophenyl)-8-methoxy-2-(4-morpholinophenyl)-amino-pyrido[2,3-d]pyrimidin-7-one], which IC50 (B-Raf delta1-415) is on record?
The IC50 was less than 0.1 µM.

What about the IC50 (HT-29 tumor cells) of the same compound?
The IC50 was less than 1 µM.

O=c1c(-c2c(F)cccc2Cl)cc2cnc(Nc3ccccc3)nc2n1OCc1cccnc1 [Compound 153, 6-(2-Chloro-6-fluorophenyl)-2-phenylamino-8-(pyrid-3-ylmethyl)oxy-pyrido[2,3-d]pyrimidin-7-one] was tested. Which IC50 (B-Raf delta1-415) did it give?
Its IC50 is less than 0.5 µM.

And the IC50 (HT-29 tumor cells)?
The IC50 was less than 1 µM.

Which results are given for COCCOn1c(=O)c(-c2c(Cl)cccc2Cl)cc2cnc(Nc3cc(C(=O)N(C)CCOC)n(C)c3)nc21 [Compound 170, 6-(2,6-Dichlorophenyl)-8-(2-methoxyethyl)oxy-2-(5-N-(2-methoxyethyl)-N-methyl-aminocarbonyl-1-methyl-pyrrol-3-yl)-amino-pyrido[2,3-d]pyrimidin-7-one]?
IC50 (B-Raf delta1-415): < 0.5 µM; IC50 (HT-29 tumor cells): < 1 µM

Cn1cc(Nc2ncc3cc(-c4c(Cl)cccc4Cl)c(=O)n(OC[C@@H](O)CO)c3n2)cc1C(=O)NCCN1CCCC1 [Compound 103, 6-(2,6-Dichlorophenyl)-8-(2-(S)-2,3-dihydroxypropyl)oxy-2-(5-(2-pyrrolidinoethyl)aminocarbonyl-1-methyl-pyrrol-3-yl)-amino-pyrido[2,3-d]pyrimidin-7-one] was tested. Which IC50 (B-Raf delta1-415) did it give?
The IC50 was less than 0.5 µM.

And the IC50 (HT-29 tumor cells)?
The IC50 was less than 1 µM.

Which IC50 (B-Raf delta1-415) does the source give for CCCN1CCN(c2ccc(Nc3ncc4cc(-c5c(F)cccc5Cl)c(=O)n(OC)c4n3)cc2)CC1 [Compound 217, 6-(2-Chloro-6-fluorophenyl)-8-methoxy-2-(4-(4-propylpiperazino)phenyl)-amino-pyrido[2,3-d]pyrimidin-7-one] here?
Its IC50 is less than 0.5 µM.

What about the IC50 (HT-29 tumor cells) of the same compound?
The IC50 was less than 1 µM.

Which results are given for COn1c(=O)c(-c2c(Cl)cccc2Cl)cc2cnc(Nc3ccc(S(=O)(=O)CCCO)cc3)nc21 [Compound 160, 6-(2,6-Dichlorophenyl)-2-(4-(3-hydroxypropyl)sulfonylphenyl)-amino-8-methoxy-pyrido[2,3-d]pyrimidin-7-one]?
IC50 (B-Raf delta1-415): < 0.1 µM; IC50 (HT-29 tumor cells): < 1 µM

For COn1c(=O)c(-c2c(Cl)cccc2Cl)cc2cnc(Nc3cc(C(=O)N4CCNCC4)n(C)c3)nc21 [Compound 185, 6-(2,6-Dichlorophenyl)-8-methoxy-2-(5-piperazinocarbonyl-1-methyl-pyrrol-3-yl)-amino-pyrido[2,3-d]pyrimidin-7-one], which IC50 (B-Raf delta1-415) is on record?
Its IC50 is less than 0.1 µM.

And the IC50 (HT-29 tumor cells)?
The IC50 was less than 1 µM.

How did the IC50 (B-Raf delta1-415) turn out when COn1c(=O)c(-c2c(Cl)cccc2Cl)cc2cnc(Nc3ccc(/C=N/O)cc3)nc21 [Compound 210, 2-(4-(hydroximino)methylphenyl)-amino-6-(2,6-dichlorophenyl)-8-methoxy-pyrido[2,3-d]pyrimidin-7-one] was run?
The IC50 was less than 0.5 µM.

And the IC50 (HT-29 tumor cells)?
The IC50 was less than 1 µM.

What does the source list for COn1c(=O)c(-c2c(Cl)cccc2Cl)cc2cnc(Nc3cccc(CN4CC[C@H](O)C4)c3)nc21 [Compound 181, 6-(2,6-Dichlorophenyl)-2-(3-(3-(S)-hydroxypyrrolidinomethyl)phenyl)-amino-8-methoxy-pyrido[2,3-d]pyrimidin-7-one]?
IC50 (B-Raf delta1-415): < 0.5 µM; IC50 (HT-29 tumor cells): < 1 µM

Which IC50 (B-Raf delta1-415) does the source give for COn1c(=O)c(-c2c(Cl)cccc2Cl)cc2cnc(Nc3ccccc3F)nc21 [Compound 190, 6-(2,6-Dichlorophenyl)-2-(2-fluorophenyl)amino-8-methoxy-pyrido[2,3-d]pyrimidin-7-one] here?
Its IC50 is greater than 1 µM.

And the IC50 (HT-29 tumor cells)?
The IC50 was less than 1 µM.

Which IC50 (B-Raf delta1-415) does the source give for COn1c(=O)c(-c2c(Cl)cccc2Cl)cc2cnc(Nc3cc(C(=O)N(C)CCOC(=O)c4cccnc4)n(C)c3)nc21 [Compound 159] here?
Its IC50 is less than 0.5 µM.

And the IC50 (HT-29 tumor cells)?
Its IC50 is less than 1 µM.

What does the source list for CCN(CC)CCNC(=O)c1cc(Nc2ncc3cc(-c4c(C)cccc4C)c(=O)n(OC)c3n2)cn1C [Compound 84, 6-(2,6-Dimethylphenyl)-2-(5-(2-diethylaminoethyl)aminocarbonyl-1-methyl-pyrrol-3-yl)-amino-8-methoxy-pyrido[2,3-d]pyrimidin-7-one]?
IC50 (B-Raf delta1-415): < 0.5 µM; IC50 (HT-29 tumor cells): < 1 µM

What does the source list for COn1c(=O)c(-c2c(Cl)cccc2Cl)cc2cnc(Nc3ccc(OCC(O)CO)cc3)nc21 (stereo not shown) [Compound 93, 6-(2,6-Dichlorophenyl)-2-(4-(2,3-dihydroxypropyl)oxyphenyl) amino-8-methoxy-pyrido[2,3-d]pyrimidin-7-one]?
IC50 (B-Raf delta1-415): < 0.5 µM; IC50 (HT-29 tumor cells): < 1 µM

With COn1c(=O)c(-c2c(Cl)cccc2Cl)cc2cnc(Nc3ccc(SCCCO)cc3)nc21 [Compound 158, 6-(2,6-Dichlorophenyl)-2-(4-(3-hydroxypropyl)thiophenyl)-amino-8-methoxy-pyrido[2,3-d]pyrimidin-7-one] as the compound, how does the IC50 (B-Raf delta1-415) read?
Its IC50 is less than 0.5 µM.

And the IC50 (HT-29 tumor cells)?
Its IC50 is less than 1 µM.

Which IC50 (B-Raf delta1-415) does the source give for COn1c(=O)c(-c2c(F)cccc2Cl)cc2cnc(Nc3ccc(N4CCN(S(C)(=O)=O)CC4)cc3)nc21 [Compound 223, 6-(2-Chloro-6-fluorophenyl)-8-methoxy-2-(4-(4-methylsulfonylpiperazino)phenyl)-amino-pyrido[2,3-d]pyrimidin-7-one] here?
Its IC50 is less than 0.1 µM.

And the IC50 (HT-29 tumor cells)?
The IC50 was less than 1 µM.

For COn1c(=O)c(-c2c(F)cccc2Cl)cc2cnc(Nc3cc(C(=O)N(C)CCO)n(C)c3)nc21 [Compound 193, 6-(2-Chloro-6-fluorophenyl)-2-(5-N-(2-hydroxyethyl)-N-methyl-aminocarbonyl-1-methyl-pyrrol-3-yl)-amino-8-methoxy-pyrido[2,3-d]pyrimidin-7-one], which IC50 (B-Raf delta1-415) is on record?
Its IC50 is less than 0.1 µM.

And the IC50 (HT-29 tumor cells)?
The IC50 was less than 1 µM.

Which IC50 (B-Raf delta1-415) does the source give for COn1c(=O)c(-c2c(Cl)cccc2Cl)cc2cnc(Nc3ccc(CN4CCN(C(C)C)CC4)cc3)nc21 [Compound 166] here?
Its IC50 is less than 0.5 µM.

What about the IC50 (HT-29 tumor cells) of the same compound?
Its IC50 is less than 1 µM.

Which results are given for COn1c(=O)c(-c2c(Cl)cccc2Cl)cc2cnc(Nc3ccc(N4CCN(C(C)C)CC4)cc3)nc21 [Compound 187]?
IC50 (B-Raf delta1-415): < 0.5 µM; IC50 (HT-29 tumor cells): < 1 µM

For O=c1ccc2cnc(Nc3ccc(N4CCOCC4)cc3)nc2n1OC1CCCC1 [Compound 226], which IC50 (B-Raf delta1-415) is on record?
Its IC50 is greater than 1 µM.

And the IC50 (HT-29 tumor cells)?
Its IC50 is less than 10 µM.

With COn1c(=O)c(-c2c(Cl)cccc2Cl)cc2cnc(NC(=O)C3CC3)nc21 [Compound 80, 2-Cyclopropylcarbonylamino-6-(2,6-dichlorophenyl)-8-methoxy-pyrido[2,3-d]pyrimidin-7-one] as the compound, how does the IC50 (B-Raf delta1-415) read?
The IC50 was greater than 1 µM.

What about the IC50 (HT-29 tumor cells) of the same compound?
The IC50 was greater than 10 µM.

How did the IC50 (B-Raf delta1-415) turn out when CCN(CC)S(=O)(=O)c1cccc(Nc2ncc3cc(-c4c(Cl)cccc4Cl)c(=O)n(OC)c3n2)c1 [Compound 123, 6-(2,6-Dichlorophenyl)-2-(3-diethylaminosulfonylphenyl)-amino-8-methoxy-pyrido[2,3-d]pyrimidin-7-one] was run?
The IC50 was greater than 1 µM.

And the IC50 (HT-29 tumor cells)?
The IC50 was less than 10 µM.

What does the source list for O=c1c(-c2c(F)cccc2Cl)cc2cnc(Nc3ccc(N4CCOCC4)cc3)nc2n1OCC1CCCC1 [Compound 173]?
IC50 (B-Raf delta1-415): < 0.5 µM; IC50 (HT-29 tumor cells): < 1 µM
